Laboratory results reported in the supplement of paper PMC6045584.
± gives the standard deviation of the averaged measurements.

Key:
VINORELBINE = compound: CCC1=C[C@@H]2CN(C1)Cc1c([nH]c3ccccc13)[C@@](C(=O)OC)(c1cc3c(cc1OC)N(C)[C@H]1[C@@](O)(C(=O)OC)[C@H](OC(C)=O)[C@]4(CC)C=CCN5CC[C@]31[C@@H]54)C2 [VINORELBINE]; assay: surviving fraction relative to DMSO-only wells; higher = less growth inhibition; details: exposure time: 5 days
Procedure, shortened: (§1)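 Surviving fraction was calculated by normalising CellTiter-Glo luminescence to the median of DMSO-only wells. Tumour cell lines in log phase were seeded in 384-well plates at 250–500 cells per well, and 24 hours later were exposed continuously for five days to inhibitors at 0.5, 1, 5, 10, 50, 100, 500 and 1000 nM.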

[1] = compound: Cc1nc(Nc2n[nH]c3c2CN(C(=O)N[C@H](CN(C)C)c2ccccc2)C3(C)C)c2sccc2n1; assay: as above; details: exposure time: 5 days
Procedure, shortened: as §1

Test System	surviving fraction (VINORELBINE; 0.5 nM)	surviving fraction (VINORELBINE; 1 nM)	surviving fraction (VINORELBINE; 5 nM)	surviving fraction (VINORELBINE; 10 nM)	surviving fraction (VINORELBINE; 50 nM)	surviving fraction (VINORELBINE; 100 nM)	surviving fraction (VINORELBINE; 500 nM)	surviving fraction (VINORELBINE; 1000 nM)	surviving fraction ([1]; 0.5 nM)	surviving fraction ([1]; 1 nM)	surviving fraction ([1]; 5 nM)	surviving fraction ([1]; 10 nM)	surviving fraction ([1]; 50 nM)	surviving fraction ([1]; 100 nM)	surviving fraction ([1]; 500 nM)	surviving fraction ([1]; 1000 nM)
SUM159 BREAST	0.966 ± 0.14	0.944 ± 0.2	0.941 ± 0.2	0.908 ± 0.23	0.423 ± 0.19	0.156 ± 0.052	0.129 ± 0.053	0.12 ± 0.046	1.13 ± 0.2	1.15 ± 0.2	1.15 ± 0.21	1.1 ± 0.18	0.554 ± 0.027	0.407 ± 0.026	0.369 ± 0.028	0.292 ± 0.0093
SUM44 BREAST	1.01 ± 0.068	0.972 ± 0.034	0.668 ± 0.068	0.387 ± 0.024	0.258 ± 0.013	0.225 ± 0.023	0.264 ± 0.014	0.256 ± 0.024	1.08 ± 0.03	1.05 ± 0.065	1 ± 0.039	0.972 ± 0.041	0.983 ± 0.059	0.929 ± 0.038	0.735 ± 0.023	0.541 ± 0.023
MDAMB134 BREAST	0.97 ± 0.1	0.842 ± 0.025	0.751 ± 0.072	0.691 ± 0.082	0.728 ± 0.016	0.708 ± 0.05	0.69 ± 0.085	0.767 ± 0.091	0.805 ± 0.016	0.954 ± 0.014	0.909 ± 0.029	0.924 ± 0.02	1.04 ± 0.044	1.02 ± 0.017	1.13 ± 0.035	0.961 ± 0.2
MDAMB231 BREAST	0.976 ± 0.035	0.998 ± 0.02	0.904 ± 0.027	0.681 ± 0.027	0.238 ± 0.008	0.244 ± 0.0099	0.189 ± 0.0019	0.172 ± 0.009	0.964 ± 0.023	0.923 ± 0.029	0.667 ± 0.012	0.591 ± 0.019	0.474 ± 0.0092	0.433 ± 0.022	0.205 ± 0.0056	0.0829 ± 0.0099
CME SYNOVIAL	1.11 ± 0.17	1.09 ± 0.11	1.21 ± 0.11	1.08 ± 0.12	0.488 ± 0.098	0.355 ± 0.085	0.275 ± 0.039	0.333 ± 0.033	0.982 ± 0.12	1.32 ± 0.047	0.564 ± 0.077	1.42 ± 0.17	0.287 ± 0.018	1.34 ± 0.057	0.325 ± 0.025	1.31 ± 0.06
HCC1954 BREAST	1.08 ± 0.15	0.9287 ± 0.0046	0.576 ± 0.01	0.311 ± 0.011	0.1412 ± 0.0011	0.13 ± 0.00071	0.091 ± 0.0021	0.144 ± 0.025	1 ± 0.05	0.88 ± 0.12	0.43 ± 0.044	0.466 ± 0.0085	0.487 ± 0.023	0.493 ± 0.018	0.428 ± 0.028	0.253 ± 0.035
SG32 HEADNECK	1.32 ± 0.21	1.18 ± 0.3	0.81 ± 0.042	0.621 ± 0.047	0.258 ± 0.041	0.302 ± 0.053	0.409 ± 0.076	0.437 ± 0.048	1.04 ± 0.29	0.756 ± 0.027	0.363 ± 0.013	0.247 ± 0.017	0.206 ± 0.014	0.148 ± 0.021	0.0707 ± 0.012	0.041 ± 0.011
HCC70 BREAST	1.04 ± 0.032	1.01 ± 0.014	0.937 ± 0.042	0.752 ± 0.029	0.108 ± 0.012	0.129 ± 0.013	0.131 ± 0.015	0.132 ± 0.02	0.996 ± 0.059	0.895 ± 0.096	0.275 ± 0.035	0.089 ± 0.014	0.0497 ± 0.0061	0.038 ± 0.003	0.032 ± 0.0089	0.0307 ± 0.0061
MHM BONE	1.01 ± 0.029	0.988 ± 0.029	1.022 ± 0.0092	1 ± 0.02	0.493 ± 0.025	0.325 ± 0.029	0.22 ± 0.013	0.195 ± 0.014	0.953 ± 0.02	0.935 ± 0.016	0.924 ± 0.034	0.906 ± 0.015	0.692 ± 0.03	0.664 ± 0.022	0.559 ± 0.023	0.535 ± 0.014
NY BONE	0.994 ± 0.019	0.964 ± 0.026	0.924 ± 0.075	0.437 ± 0.016	0.0393 ± 0.0031	0.035 ± 0.006	0.0417 ± 0.0074	0.0433 ± 0.0075	0.934 ± 0.041	0.725 ± 0.025	0.527 ± 0.016	0.467 ± 0.031	0.447 ± 0.014	0.402 ± 0.018	0.258 ± 0.011	0.0807 ± 0.0051
